From ChEMBL document CHEMBL1221369, “Cytotoxic isomalabaricane derivatives and a monocyclic triterpene glycoside from the sponge Rhabdastrella globostellata” (J Nat Prod, 2010) come the findings set out here.

The source made the active and inactive calls. The rule behind the calls is not given here.

For orientation: IC50 means the concentration that gives 50% inhibition.

The test system of assay [1] is HL-60 (human). Kind of assay: Cytotoxicity against human HL-60 cells at 100 uM by MTT assay.
For assay [2], the system named is HL-60 (human). In words: Cytotoxicity against human HL-60 cells by MTT assay. (In general: Formazan colour is commonly taken as a measure of viable cells.)
Assay [3] has as its system HL-60 (human). In words: Induction of apoptosis in human HL-60 cells assessed as pro-caspase 3 cleavage at 10 uM by immunoblot analysis. For orientation: Immunoblotting shows a protein as a band on a membrane.
The test system of assay [4] is HL-60 (human). In words: Induction of apoptosis in human HL-60 cells at 10 uM after 72 hrs by FITC-conjugated annexin V staining-based FACS analysis. Background: In flow cytometry, cells or beads pass a laser one at a time.
The test system of assay [5] is HL-60 (human). In words: Effect on Bcl-2 expression in human HL-60 cells at 10 uM by immunoblot analysis.

As for `COC(=O)/C(C)=C1\C(=O)C[C@H]2[C@@]3(C)CC[C@H](O)C(C)(C)[C@@H]3CC[C@]12C`, the outcome in assay [1] was inactive.
Same read-out and setting: in the case of `COC(=O)/C(C)=C1\C(=O)C[C@H]2[C@@]3(C)CC[C@H](OC(C)=O)C(C)(C)[C@@H]3CC[C@]12C` it was “inactive”; in that of `COC(=O)/C(C)=C1\C(=O)C[C@H]2[C@@]3(C)CC[C@H](OC(C)=O)[C@](C)(C(=O)OC)[C@@H]3CC[C@]12C`, “inactive”.
As to `C=C(C)[C@@H]1C[C@@H](OC(C)=O)[C@](C)(OC(C)=O)[C@H]1/C=C/C(C)=C1\C(=O)C[C@H]2[C@@]3(C)CC[C@H](OC(C)=O)C(C)(C)[C@@H]3CC[C@]12C` [RHABDASTIN D DIACETATE], 11 µM corresponded to half-maximal inhibition in assay [2] (IC50).
`C=C(C)[C@@H]1C[C@H](O)[C@](C)(O)[C@H]1/C=C/C(C)=C1\C(=O)C[C@H]2[C@@]3(C)CC[C@H](OC(C)=O)C(C)(C)[C@@H]3CC[C@]12C` [RHABDASTIN D]: the result in assay [3] was Active. Besides, the Activity in assay [4] is 18%. In addition, the outcome in assay [5] was inactive. The same molecule displayed an IC50 in assay [2] of 21 µM.
The like results for `C=C(C)[C@@H]1C[C@@H](O)[C@](C)(O)[C@H]1/C=C/C(C)=C1\C(=O)C[C@H]2[C@@]3(C)CC[C@H](OC(C)=O)C(C)(C)[C@@H]3CC[C@]12C` [RHABDASTIN E] were, in that order, “Active”, 17%, “inactive” and 29 µM.
Molecule `CC(=O)O[C@H]1CC[C@@]2(C)[C@@H](CC[C@]3(C)/C(=C(C)/C=C/[C@H]4[C@H](C(C)(C)O)C[C@@H](O)[C@]4(C)O)C(=O)C[C@@H]23)C1(C)C` [RHABDASTIN G] came in with a half-maximal inhibitory concentration (IC50) in assay [2] of 44 µM.
